Reference: patent publication US8519154B2, “Method for treatment of bronchial asthma” (Council of Scientific & Industrial Research, priority 2011, dated 2013)

Legend:
[1] = Crossing of the intestinal barrier; assay type: in vitro ADME
mice [2] = assay: Analgesic activity by hot plate method; assay type: in vivo
Description: Analgesic activity was carried out by Hot Plate method. The response time for paw licking or jumping on the heated plate of analgesiometer (55±1° C.). (Socrel, Ugo Basile, Italy) was taken as the reaction time. A comparison of reaction time (in seconds) between control (untreated) and Compound I treated mice was made for a group of 6 animals in each test group [Eddy, N B., Leimbach, D., Synthetic analgesics, II. Dithienylbutenyl- and dithienylbutylamines. J. Pharmacol. Exp. Ther. 107 (1953) 385-393].
The time for hind paw licking or jumping on the heated plate of analgesiometer (Socrel, ugo basile, Italy) was taken as the reaction time.

[3] = 28 d sub-acute oral toxicity (OECD TG 407); assay type: in vivo, mice; details: both sexes, Balb/c, mouse, in vivo; mice, 28 d oral
Description: The study was performed according to the guidelines laid in OECD TG 407. Young healthy adult mice (Balb/c) weighing between 28 to 35 g were employed and randomly assigned to the control and treatment groups and kept in their cages for at least five days prior to the start of the treatment to allow for acclimatisation to the laboratory conditions. 10 animals (five female and five male) were used at each dose level. Local standards of laboratory animal care were maintained. The temperature in the experimental animal room was maintained at 24° C.±3° C. and the relative humidity between 40 to 60% with 12 hours artificial light and 12 hours dark photoperiod. For feeding, conventional sterile pellet diets (Nay Chetan) with an unlimited supply of RO drinking water was given. A sample of the diet was retained until finalisation of the report. Animals were housed in small groups of 5 of the same sex.
Blunt ended canula was used for gavaging. During the period of administration of Compound I, the animals are observed closely (30 minutes cage side observation), each day for signs of toxicity till the day of sacrifice. Weights of animals and measurements of food consumption were made once in a week.
Experimental animals were sacrificed on day 29. Before sacrifice, blood was drawn from the retro-orbital sinus of mice with the help of heparinised capillary tubes and split in to two parts. Part taken in tubes containing EDTA was used for hematological studies with the help of Automatic Hematology Analyzer (Medonic). The other part was allowed to clot for 2 h and serum separated by centrifugation at 3000 rpm for 5 min, and subsequently used for clinical biochemistry and immunoglobuling profiling. Post sacrifice, the individual organs were dissected out, weighed and percentage relative organ weights determined. Spleen, lymphnode and bone marrow cell viability were judged by trypan blue dye exclusion test.
The blood left after the hematological studies were allowed to clot for 2 h and serum separated by centrifugation at 3000 rpm for 5 min and subsequently used for clinical biochemistry. Details of the clinical biochemistry are given below in table II.
Serum concentrations of total IgG and IgM were measured by ELISA and Cell mediated immunity was measured in terms of % increase in paw volume in mice sensitized with SRBC.
Histopathology was carried out on vital organs by fixing organs in 10% buffered formalin saline for 72 h followed by washing, dehydrating and embedding on paraffin wax. Paraffin blocks were sectioned (4-5μ tick), deparaffinised and stained with hematoxylin and eosin for viewing and photography under microscope (Nikion, Japan). Histopathology was performed in the control and high dose groups unless mentioned otherwise.

mice [4] = assay: Electric shock induced convulsions; assay type: in vivo, Swiss mice
Description: Convulsion were induced by a single electroshock (50 Hz in frequency, 0.5 ms pulse width, 50 mA current for 0.3 s) applied through bi-polar electrodes attached to the ear pinna on both side using a pulse generator (Ugo Basile, Italy). The convulsive activity (determined by loss of tonic extensor seizure) was recorded in control (untreated) and Compound I were treated (before electro-shock application) animals [Achliya, G S, Wadodkar, S G, Darle, A K., Evaluation of CNS activity of Bramhi Ghrita. Indian J. Pharmacol. 37 (2005) 33-36].
Anti-convulsant activity was measured by electric shock induced seizure. Five Swiss mice were used for one dose of drug. Convulsion were induced by a single electroshock (50 Hz in frequency, 0.5 ms pulse width, 50 mA current for 0.3 s) applied through bi-polar electrodes attached to the ear pinna on both side by a pulse generator (Ugo Basile, Italy) Test drug were administered orally 60 min before electroshock application, and convulsive activity was determined by loss of tonic extensor seizure.

Male wistar rats = assay: Blood pressure, heart rate and respiratory rate by telemetry; assay type: in vivo; set-up: RR: unit not given beside the values; details: for RR / HR / DBP / SBP: 50 mg/kg i.v.; for HR: in bpm (unit assumed); for DBP / SBP: in mmHg (unit assumed)
Description: Male wistar rats of approximately 6 months of age were anaesthetised with a mixture of ketamine (40 mg/kg) and xylazine (5 mg/kg) and fitted with TL11M2-C50PXT telemetry transmitters (Data Sciences Intl., St. Paul, Minn., USA) in the peritoneal cavity by performing surgery. Experiments were performed 15 days after surgery. Individual rats were placed in plastic cage on top of a receiver (RLA 2000, Data Science) for the measurement of systolic BP, diastolic BP, Heart rate and respiratory rate. The signals from the transmitters were received by two RLA 2000 receivers and transmitted via a Data Exchange Matrix to a Dataquest PCI card CQ 2240 in the computer. The data were interpreted by the Dataquest program A.R.T. version 2.2 Gold Version.

Solubility in water = assay type: physicochemical

## COc1cc(C=O)cc2c1[nH]c1ccccc12 [Compound I, 1-methoxy-3-formyl-9H carbazole]
[1]
  crosses the intestinal barrier: largely by passive diffusion
Mice [2]; 12.5 mg/kg p.o., 0 hr
  Reaction time: 11.08 ± 1.60 s
Mice [2]; 12.5 mg/kg p.o., 1 hr
  Reaction time: 10.62 ± 1.64 s
Mice [2]; 25 mg/kg p.o., 0 hr
  Reaction time: 13.58 ± 2.15 s
Mice [2]; 25 mg/kg p.o., 1 hr
  Reaction time: 14.62 ± 4.67 s
Mice [2]; 50 mg/kg p.o., 0 hr
  Reaction time: 14.38 ± 1.87 s
Mice [2]; 50 mg/kg p.o., 1 hr
  Reaction time: 14.34 ± 1.07 s
Mice [2]; 12.5, 25 and 50 mg/kg orally, 55±1° C.
  change in the reaction time on a hot plate: did not show any significant change in the reaction time
[3]
  NOAEL at 28 days: 93 mg/kg
Mice [4]; 12.5 mg/kg p.o.
  Convulsions Clonic: 5/5
  Convulsions Tonic: 5/5
  Mortality: 1/5
Mice [4]; 50 mg/kg p.o.
  Convulsions Clonic: 5/5
  Convulsions Tonic: 5/5
  Mortality: 0/5
Mice [4]; 100 mg/kg p.o.
  Convulsions Clonic: 5/5
  Convulsions Tonic: 5/5
  Mortality: 0/5
Mice [4]; 12.5, 25 and 50 mg/kg orally
  anti-convulsant activity: no anti-convulsant activity
Male wistar rats; 0 mins
  RR: 89.4 ± 1.4
  HR: 242.1 ± 9.7
  DBP: 71.7 ± 10.2
  SBP: 112 ± 2.89
Male wistar rats; 1 hr
  RR: 85.77 ± 8.9
  HR: 309.1 ± 45.9
  DBP: 82.1 ± 4.5
  SBP: 115.4 ± 3.6
Male wistar rats; 2 hr
  RR: 89.5 ± 2.56
  HR: 261 ± 13.8
  DBP: 77.5 ± 6.07
  SBP: 114.5 ± 2.8
Male wistar rats; 3 hr
  RR: 84.5 ± 3.5
  HR: 272.7 ± 17.5
  DBP: 78.5 ± 8.1
  SBP: 110.2 ± 4.5
Male wistar rats; 4 hr
  RR: 96.3 ± 2.1
  HR: 273.1 ± 17.06
  DBP: 75.9 ± 8.2
  SBP: 108.7 ± 5.2
Male wistar rats; rats, before and after treatment
  change in blood pressure, heart rate and respiratory rate: No significant change in blood pressure, heart rate and respiratory rate
Solubility in water
  solubility in water: insoluble in water
